# Test results as given in US12102644B2, “Compounds and methods of promoting myelination” (Case Western Reserve University, priority 2019, dated 2024).
# Columns and labels:
# [1] = system: sterol levels in OPCs (cholesterol biosynthesis pathway); test: GC/MS-based sterol profiling in OPCs; type: cell-based, mouse; conditions: 24 h treatment
# estrogen receptor = conditions: cited from earlier work
# [2] = system: mouse epiblast stem cell-derived OPCs; test: In vitro OPC differentiation assay (percentage of MBP+ oligodendrocytes, high-content imaging); type: cell-based; conditions: 72 h, differentiation-permissive conditions
# Description: To rigorously assess effects of small molecule and genetic treatments on OPCs, all treatments were assayed in two batches of epiblast stem cell-derived OPCs, and key results were confirmed using mouse primary OPCs. OPCs were generated from two separate EpiSC lines, EpiSC5 (giving rise to OPC-5 OPCs) and 12901 (giving rise to OPC-1 OPCs). EpiSC-derived OPCs were obtained using in vitro differentiation protocols and culture conditions described previously. To ensure uniformity throughout all in vitro screening experiments, EpiSC-derived OPCs were sorted to purity by fluorescence activated cell sorting at passage five with conjugated CD 140a-APC (eBioscience, 17-1401; 1:80) and NG2-AF488 (Millipore, AB[…]; 1:100) antibodies. Sorted batches of OPCs were expanded and frozen down in aliquots. OPCs were thawed into growth conditions for one passage before use in further assays. Cultures were regularly tested and shown to be mycoplasma free. EpiSC-derived OPCs were grown and expanded in poly-ornithine (PO) and laminin-coated flasks with growth medium (DMEM/F12 supplemented with N2-MAX (R&D Systems), B-27 (ThermoFisher), GlutaMax (Gibco), FGF2 ([…], R&D systems, 233-FB-025) and PDGF-AA ([…], R&D systems, 233-AA-050) before harvesting for plating. The cells were seeded onto poly-D-[…]-well CellCarrier plates (PerkinElmer) coated with laminin (Sigma, L2020; 15 μg/ml) using multi-channel pipet. For the experiment, 800,000 cells/mL stock in differentiation medium (DMEM/F12 supplemented with N2-MAX and B-27) was prepared and stored on ice for 2 h. Then, 40,000 cells were seeded per well in differentiation medium and allowed to attach for 30 min before addition of drug. For dose-response testing of all molecules except sterols, a 1000× compound stock in dimethyl sulphoxide (DMSO) was added to assay plates with 0.1 μL solid pin multi-blot replicators (V & P Scientific; VP 409), resulting in a final primary screening concentration of 1×. Sterols were added to cells as an ethanol solution (0.2% final ethanol concentration). Positive control wells (ketoconazole, 2.5 μM) and DMSO vehicle controls were included in each assay plate. Cells were incubated under standard conditions (37° C., 5% CO2) for 3 days and fixed with 4% paraformaldehyde (PFA) in phosphate buffered saline (PBS) for 20 min. Fixed plates were washed with PBS (200 μL per well) twice, permeabilized with 0.1% Triton X-100 and blocked with 10% donkey serum (v/v) in PBS for 40 min. Then, cells were labelled with MBP antibodies (Abcam, ab7349; 1:200) for 16 h at 4° C. followed by detection with Alexa Fluor conjugated secondary antibodies (1:500) for 45 min. Nuclei were visualized by DAPI staining (Sigma; 1 μg/ml). During washing steps, PBS was added using a multi-channel pipet and aspiration was performed using Biotek EL406 washer dispenser (Biotek) equipped with a 96-well aspiration manifold. Plates were imaged on the Operetta High Content Imaging and Analysis system (PerkinElmer) and a set of 6 fields captured from each well resulting in an average of 1200 cells being scored per well. Analysis (PerkinElmer Harmony and Columbus software) began by identifying intact nuclei stained by DAPI; that is, those traced nuclei that were larger than 300 μm^2 in surface area. Each traced nucleus region was then expanded by 50% and cross-referenced with the […] (MBP) stain to identify oligodendrocyte nuclei, and from this the percentage of oligodendrocytes was calculated. In some experiments, the total process length of MBP^+ oligodendrocytes was calculated as previously described.
# [3] = system: human myelinating cortical spheroids; test: MyRF+ oligodendrocytes in human myelinating cortical spheroids; type: cell-based; conditions: spheroids treated 10 days from day 62, stained day 93
# Description: Spheroids at day 62 were treated with the indicated small molecules for 10 days and stained at day 93. Four spheroids were analyzed per treatment condition, and four fields per organoid were used in the quantitation. f) Representative images of spheroids. Nuclei are labeled with DAPI (blue), and oligodendrocytes are immunostained for MyRF (red). Scale bar, 100 μm.
# [4] = system: mouse brain sterol levels; test: Analysis of mouse brain sterol levels (GC/MS); type: in vivo; conditions: ifenprodil 10 mg per kg, tamoxifen 2 mg per kg, daily, 3 days
# [5] = mouse; cited from earlier work
# LPC-lesioned spinal cord [6] = test: LPC focal demyelination of spinal cord, remyelination histology; type: in vivo, mouse; conditions: ifenprodil 10 mg per kg or tamoxifen 2 mg per kg, daily i.p., 8 days from day 4 after lesion
# [7] = system: human induced pluripotent stem cell-derived cortical spheroids; test: Sterol profiling in human iPSC-derived cortical spheroids; type: cell-based
# LPC-lesioned spinal cord [8] = conditions: previously established by the inventors; cited from earlier work
# rat CYP51 = target: T1, rat CYP51 (Rattus norvegicus, UniProt Q64654); test: biochemical
# T1 sequence (Q64654 1-503): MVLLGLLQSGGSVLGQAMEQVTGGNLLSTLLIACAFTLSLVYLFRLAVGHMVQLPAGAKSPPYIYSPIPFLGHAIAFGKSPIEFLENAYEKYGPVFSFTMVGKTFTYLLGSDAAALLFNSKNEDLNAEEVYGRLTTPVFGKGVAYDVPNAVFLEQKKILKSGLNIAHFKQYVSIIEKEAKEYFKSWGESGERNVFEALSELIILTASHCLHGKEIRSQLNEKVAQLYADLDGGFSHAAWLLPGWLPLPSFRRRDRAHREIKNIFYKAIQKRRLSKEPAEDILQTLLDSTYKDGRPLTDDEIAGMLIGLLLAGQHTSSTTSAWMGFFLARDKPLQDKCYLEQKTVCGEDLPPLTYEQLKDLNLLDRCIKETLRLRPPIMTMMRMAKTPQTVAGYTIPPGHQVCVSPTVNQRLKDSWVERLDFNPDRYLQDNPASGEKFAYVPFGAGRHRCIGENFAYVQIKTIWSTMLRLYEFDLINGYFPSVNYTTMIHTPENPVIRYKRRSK
Compound,"accumulation of sterol intermediates in OPCs (enzyme inhibition in OPCs, e.g. EBP) [1]",potency as estrogen receptor modulator relative to tamoxifen (estrogen receptor),formation of MBP+ oligodendrocytes from OPCs [2],formation of MyRF-positive human oligodendrocytes [3],"8,9-unsaturated sterols in mouse CNS [4]",blood brain barrier penetration [5],remyelination of LPC lesion (LPC-lesioned spinal cord [6]),"8,9-unsaturated sterol accumulation in human cortical spheroids [7]",remyelination in mouse models of demyelination (earlier work) (LPC-lesioned spinal cord [8]),IC50 (rat CYP51)
4-hydroxytamoxifen,inhibit EBP in OPCs,100 fold,enhance the formation of oligodendrocytes with comparable potency,–,–,–,–,–,–,–
"CC(C(O)c1ccc(O)cc1)N1CCC(Cc2ccccc2)CC1 (centres unmarked) [ifenprodil, Ifenprodil]",–,–,–,enhanced the formation of myelin regulatory factor (MyRF)-positive human oligodendrocytes,"induced significant accumulation of 8,9-unsaturated sterols in vivo in the CNS",known to cross the mouse blood brain barrier,remyelination was widespread throughout the lesion,"led to 8,9-unsaturated sterol accumulation",–,–
"Clc1ccc(COC(Cn2ccnc2)c2ccc(Cl)cc2Cl)c(Cl)c1 (centres unmarked) [miconazole, Miconazole]",–,–,–,–,–,–,–,"led to 8,9-unsaturated sterol accumulation",enhances remyelination in mouse models of demyelination,300 to 700 nM
